Test results taken from ChEMBL document CHEMBL1123968, “Isoprenoid (phosphinylmethyl)phosphonates as inhibitors of squalene synthetase” (J Med Chem, 1988).

The compounds below were run against T1, Squalene synthase (Rattus norvegicus, UniProt Q02769) (assay: Inhibition of squalene synthetase was determined in rat liver microsomes). Settings: read-out: I50.
T1 sequence (Q02769 whole entry): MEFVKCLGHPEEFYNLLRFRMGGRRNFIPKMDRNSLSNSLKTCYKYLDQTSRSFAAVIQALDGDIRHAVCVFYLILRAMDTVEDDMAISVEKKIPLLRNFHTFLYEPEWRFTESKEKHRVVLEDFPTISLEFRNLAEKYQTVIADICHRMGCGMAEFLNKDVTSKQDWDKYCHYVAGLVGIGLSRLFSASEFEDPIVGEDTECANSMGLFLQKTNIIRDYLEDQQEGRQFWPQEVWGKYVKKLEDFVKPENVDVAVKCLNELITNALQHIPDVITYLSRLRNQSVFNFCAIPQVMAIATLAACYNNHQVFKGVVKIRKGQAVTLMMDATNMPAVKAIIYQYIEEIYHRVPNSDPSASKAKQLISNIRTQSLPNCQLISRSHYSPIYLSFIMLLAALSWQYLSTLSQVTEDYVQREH
Parameters: species or system Microsome

| IC50 [µM] | Structure (SMILES) |
| --- | --- |
| 177 | COP(=O)(O)CP(=O)(O)CC/C=C(\C)CC/C=C(\C)CCC=C(C)C |
| 12.2 | CC(C)=CCC/C(C)=C/CC/C(C)=C/C=C/P(=O)(O)CP(=O)(O)O |
| 31.5 | CC(C)=CCC/C(C)=C/CC/C(C)=C/CCP(=O)(O)CP(=O)(O)O |
| 15.5 | CC(C)=CCC/C(C)=C/CC/C(C)=C/C=C/P(=O)(O)C(F)(F)P(=O)(O)O |
| 42 | CC(C)=CCC/C(C)=C/CC/C(C)=C/CCP(=O)(O)OP(=O)(O)O |
| 67 | CC(C)=CCC/C(C)=C/CC/C(C)=C/CCCP(=O)(O)CP(=O)(O)O |
| 29.9 | CC(C)=CCC/C(C)=C/CC/C(C)=C/CCP(=O)(O)C(F)(F)P(=O)(O)O |
